Test results reported in patent US20120135923A1, “Use of Melanocortins to Treat Dyslipidemia” (IPSEN PHARMA, S.A.S., priority 2009, published 2012).
pEC50, pKi: −log10 of the molar value. Read-outs that look alike come from different tables or passages of the source. Blank lines part the entries; values can stand above or below the compound they belong to. Bridge positions count the residues as written; N and C are the ends. Square brackets hold non-standard residues; d marks the D form. Peptide text beside a SMILES is read from it.

Columns and labels:
[1] = target: T1, hMC1-R (Homo sapiens, UniProt Q01726); assay: cyclic AMP bioassay (ECL) in CHO-K1 cells; type: cell-based
T1 construct: expressed in transfected cells; host or cells: CHO-K1
T1 sequence (Q01726 whole entry): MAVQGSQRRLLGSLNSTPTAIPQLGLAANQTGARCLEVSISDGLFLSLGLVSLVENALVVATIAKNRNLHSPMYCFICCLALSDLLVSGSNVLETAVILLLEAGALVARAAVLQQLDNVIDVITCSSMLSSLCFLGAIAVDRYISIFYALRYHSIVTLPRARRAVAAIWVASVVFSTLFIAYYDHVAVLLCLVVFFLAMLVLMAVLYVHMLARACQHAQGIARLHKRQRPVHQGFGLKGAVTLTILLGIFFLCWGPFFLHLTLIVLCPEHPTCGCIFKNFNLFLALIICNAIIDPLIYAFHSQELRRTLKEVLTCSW

[2] = target: T2, hMC3-R (Homo sapiens, UniProt P41968); assay: cyclic AMP bioassay (ECL) in CHO-K1 cells; type: cell-based
T2 construct: expressed in transfected cells; host or cells: CHO-K1
T2 sequence (P41968 whole entry): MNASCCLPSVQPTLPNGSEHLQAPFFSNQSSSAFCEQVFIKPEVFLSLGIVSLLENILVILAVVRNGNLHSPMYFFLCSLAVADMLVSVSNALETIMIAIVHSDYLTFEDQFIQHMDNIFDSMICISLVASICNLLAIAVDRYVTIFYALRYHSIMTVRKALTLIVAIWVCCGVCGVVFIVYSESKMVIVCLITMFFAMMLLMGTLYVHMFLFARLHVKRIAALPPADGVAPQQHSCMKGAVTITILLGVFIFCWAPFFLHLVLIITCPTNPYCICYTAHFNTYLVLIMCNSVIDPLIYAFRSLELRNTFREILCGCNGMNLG

[3] = target: T3, hMC4-R (Homo sapiens, UniProt P32245); assay: cyclic AMP bioassay (ECL) in CHO-K1 cells; type: cell-based
T3 construct: expressed in transfected cells; host or cells: CHO-K1
T3 sequence (P32245 whole entry): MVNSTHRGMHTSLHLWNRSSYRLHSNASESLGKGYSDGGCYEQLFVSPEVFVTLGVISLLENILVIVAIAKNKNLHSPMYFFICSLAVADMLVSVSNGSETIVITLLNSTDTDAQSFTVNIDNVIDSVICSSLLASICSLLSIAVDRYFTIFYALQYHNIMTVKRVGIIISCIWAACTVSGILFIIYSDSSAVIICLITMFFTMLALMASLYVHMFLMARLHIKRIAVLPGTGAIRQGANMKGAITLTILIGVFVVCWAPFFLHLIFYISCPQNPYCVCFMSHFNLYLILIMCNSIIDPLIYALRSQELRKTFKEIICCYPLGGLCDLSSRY

[4] = target: T4, hMC5-R (Homo sapiens, UniProt P33032); assay: cyclic AMP bioassay (ECL) in CHO-K1 cells; type: cell-based
T4 construct: expressed in transfected cells; host or cells: CHO-K1
T4 sequence (P33032 whole entry): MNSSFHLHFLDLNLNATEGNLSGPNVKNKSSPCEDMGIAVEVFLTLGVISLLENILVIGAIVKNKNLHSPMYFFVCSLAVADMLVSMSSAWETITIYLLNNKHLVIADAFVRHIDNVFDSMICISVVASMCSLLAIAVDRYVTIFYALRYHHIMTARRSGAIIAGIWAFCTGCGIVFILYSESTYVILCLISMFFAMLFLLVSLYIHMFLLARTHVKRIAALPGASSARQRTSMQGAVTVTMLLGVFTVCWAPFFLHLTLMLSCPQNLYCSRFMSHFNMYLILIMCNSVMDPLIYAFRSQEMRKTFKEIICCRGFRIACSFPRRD

[5] = target: T4, hMC5-R; assay: Radioligand binding assay, [125I]-NDP-α-MSH competition, CHO-K1 membranes
Description: Cellular membranes used for the in vitro receptor binding assays were obtained from transgenic CHO-K1 cells stably expressing hMC-R receptor subtypes 1, 3, 4 or 5. […] The pellets were resuspended in the same buffer and centrifuged at 50,000 g for 10 minutes at approximately 4° C. The washed pellets containing the cellular membranes were stored at approximately −80° C.
Cell membranes (1-10 μg protein/well) prepared as described above were incubated in 50 mM Tris-HCl at pH 7.4 containing 0.2% bovine serum albumin (BSA), 5 mM MgCl2, 1 mM CaCl2 and 0.1 mg/mL bacitracin, with increasing concentrations of the test compound and 0.1-0.3 nM [^25I]-NDP-α-MSH for approximately 90-120 minutes at approximately 37° C. […] Filters were washed three times with 50 mM Tris-HCl at pH 7.4 at a temperature of approximately 0-4° C. and then assayed for radioactivity using a Packard Topcount® scintillation counter. Binding data were analyzed by computer-assisted non-linear regression analysis (XL fit; IDBS).

[6] = Table 9A/9B, read-out: EC50 hMC1-R
[7] = Table 9A/9B, read-out: EC50 hMC3-R
[8] = Table 9A/9B, read-out: EC50 hMC4-R
[9] = Table 9A/9B, read-out: EC50 hMC5-R

SMILES: CCCC[C@@H]1NC(=O)N(CC(=O)N[C@H]2CSSC(C)(C)[C@@H](C(N)=O)NC(=O)[C@H](Cc3c[nH]c4ccccc34)NC(=O)[C@H](CCCNC(=N)N)NC(=O)[C@@H](Cc3ccccc3)NC(=O)[C@H](Cc3cnc[nH]3)NC(=O)[C@@H](C)NC2=O)C1=O [Hydantoin(C(O)-(Nle-Gly))-c(Cys-D-Ala-His-D-Phe-Arg-Trp-Pen)-NH2]
pEC50 [1]: 7.77 | pEC50 [2]: 7.67 | pEC50 [3]: 9.23 | pEC50 [4]: 6.45

pKi ([5]; Table 5, read-out: Ki hMC5-R): 6.11 | pEC50 [1, 6]: 8.86 | pEC50 [2, 7]: 8.54 | pEC50 [3, 8]: 10.26 | pEC50 [4, 9]: 6.33
SMILES: CC(=O)N[C@@H](CCCNC(=N)N)C(=O)N[C@H]1CC(=O)NCCCC[C@@H](C(N)=O)NC(=O)[C@H](C)NC(=O)[C@H](Cc2c[nH]c3ccccc23)NC(=O)[C@H](CCCNC(=N)N)NC(=O)[C@@H](Cc2ccccc2)NC(=O)[C@H](Cc2c[nH]cn2)NC1=O [Ac-Arg-c(Asp-His-D-Phe-Arg-Trp-Ala-Lys)-NH2]

SMILES: CC(=O)N[C@H](CCCNC(=N)N)C(=O)N[C@H]1CSSC[C@@H](C(N)=O)NC(=O)[C@H](Cc2c[nH]c3ccccc23)NC(=O)[C@H](CCCNC(=N)N)NC(=O)[C@@H](Cc2ccccc2)NC(=O)[C@H](Cc2c[nH]cn2)NC(=O)[C@@H](C)NC1=O [Ac-D-Arg-c(Cys-D-Ala-His-D-Phe-Arg-Trp-Cys)-NH2]
pKi ([5]; Ki hMC5-R, Table 5): 6.45 | pEC50 [4]: 5.99

SMILES: CC(=O)N[C@H]1CSSC[C@@H](C(=O)N2CCC[C@H]2C(=O)N2CCC[C@H]2C(=O)N[C@@H](CCCCN)C(=O)N[C@@H](CC(=O)O)C(=O)NCCC(=O)N[C@@H](CCCNC(=N)N)C(=O)N[C@@H](CCCCN)C(=O)N[C@@H](CCCNC(=N)N)C(=O)N[C@@H](CCCNC(=N)N)C(=O)N[C@@H](CCCNC(=N)N)C(=O)N[C@@H](CCC(N)=O)C(=O)N[C@@H](CCCNC(=N)N)C(=O)N[C@@H](CCCNC(=N)N)C(=O)N[C@@H](CCCNC(=N)N)C(N)=O)NC(=O)[C@H](C)NC(=O)[C@H](Cc2csc3ccccc23)NC(=O)[C@H](CCCNC(=N)N)NC(=O)[C@@H](Cc2ccc3ccccc3c2)NC(=O)[C@H](Cc2c[nH]cn2)NC(=O)[C@H](CCC(=O)O)NC1=O
pKi ([5]; Ki hMC5-R, Table 6): 7.81 | pEC50 [1]: 7.72 | Kb [2]: 106 nM | Kb [3]: 4.59 nM | pEC50 [4]: 7.00

pEC50 [1, 6]: 9.08 | pEC50 [2, 7]: 9.84 | pEC50 [3, 8]: 9.89 | pEC50 [4, 9]: 8.55
SMILES: CCCC[C@H](NC(C)=O)C(=O)N[C@H]1CC(=O)NCCCC[C@@H](C(N)=O)NC(=O)CCNC(=O)[C@H](Cc2c[nH]c3ccccc23)NC(=O)[C@H](CCCNC(=N)N)NC(=O)[C@@H](Cc2ccccc2)NC(=O)[C@H](Cc2c[nH]cn2)NC1=O [Ac-Nle-c(Asp-His-D-Phe-Arg-Trp-β-Ala-Lys)-NH2]

pKi ([5]; Table 5, read-out: Ki hMC5-R): < 5.00
SMILES: CC(=O)N[C@H]1CSSC[C@@H](C(N)=O)NC(=O)[C@H](C)NC(=O)[C@H](Cc2c[nH]c3ccccc23)NC(=O)[C@H](CCCNC(=N)N)NC(=O)[C@@H](Cc2ccccc2)NC(=O)[C@H](Cc2c[nH]cn2)NC(=O)[C@@H](C)NC1=O [Ac-c(Cys-D-Ala-His-D-Phe-Arg-Trp-Ala-Cys)-NH2] (Ac-C[dA]H[dF]RWAC-NH2; disulfide 1-8 (inferred))

SMILES: CC(=O)N[C@H]1CSSC[C@@H](C(=O)N2CCC[C@H]2C(=O)N2CCC[C@H]2C(=O)N[C@@H](CCCCN)C(=O)N[C@@H](CC(=O)O)C(=O)NCCC(=O)N[C@@H](Cc2ccc(O)cc2)C(=O)NC(C)(C)C(=O)N[C@@H](CCCNC(=N)N)C(=O)N[C@@H](CCCCN)C(=O)N[C@@H](CCCCN)C(=O)N[C@@H](CCCNC(=N)N)C(=O)N[C@@H](CCCNC(=N)N)C(=O)N[C@@H](CCC(N)=O)C(=O)N[C@@H](CCCNC(=N)N)C(=O)N[C@@H](CCCNC(=N)N)C(=O)N[C@@H](CCCNC(=N)N)C(N)=O)NC(=O)[C@H](C)NC(=O)[C@H](Cc2csc3ccccc23)NC(=O)[C@H](CCCNC(=N)N)NC(=O)[C@@H](Cc2ccc3ccccc3c2)NC(=O)[C@H](Cc2c[nH]cn2)NC(=O)[C@H](CCC(=O)O)NC1=O
pEC50 ([1]; cAMP, CHO-K1 cells expressing hMC1-R, read-out: EC50 hMC1-R): 7.17 | Kb ([2]; antagonist potency by Schild analysis, cAMP, CHO-K1 cells expressing hMC3-R, read-out: Kb hMC3-R): 439 nM | Kb ([3]; antagonist potency by Schild analysis, cAMP, CHO-K1 cells expressing hMC4-R, read-out: Kb hMC4-R): 46.5 nM | pEC50 ([4]; cAMP, CHO-K1 cells expressing hMC5-R, read-out: EC50 hMC5-R): 6.24
